In data set [1] the test system is Mus musculus. The data set can be described thus: Anticonvulsant activity in ip dosed albino CF1 mouse assessed as protection against subcutaneous metrazol-induced seizures. It is filed as functional.
Data set [2] in a line: Protective index, ratio of TD50 for neurotoxicity in ip dosed albino CF1 mouse to ED50 for anticonvulsant activity in ip dosed […] metrazol-induced seizure albino CF1 mouse model. Particulars: in vivo, read-out: Ratio TD50/ED50. Format: toxicity, organism-based.
Data set [3] concerns Mus musculus. Nature of the data set: Anticonvulsant activity in ip dosed albino CF1 mouse assessed as protection against maximal electroshock-induced seizures by measuring time to peak effect. It is filed as functional. Background: In the maximal electroshock model the usual endpoint is tonic extension of the hind limbs.
Data set [4] relates to Mus musculus. The data set can be described thus: Anticonvulsant activity in ip dosed albino CF1 mouse assessed as protection against subcutaneous metrazol-induced seizures by measuring time to peak effect. It is filed as functional.
In data set [5] the test system is Mus musculus. The data set can be described thus: Anticonvulsant activity in ip dosed albino CF1 mouse assessed as protection against 6 Hz current-induced seizures by psychomotor test. Format: functional.
Data set [6] relates to Mus musculus. Nature of the data set: Anticonvulsant activity in ip dosed albino CF1 mouse assessed as protection against 6 Hz current-induced seizure by measuring time to peak effect. It is filed as functional.
Data set [7] is described as follows: Protective index, ratio of TD50 for neurotoxicity in ip dosed albino CF1 mouse to ED50 for anticonvulsant activity in ip dosed 6 Hz current-induced seizure albino CF1 mouse model. To be noted: in vivo.
A short description of data set [8]: Neurotoxicity in ip dosed albino CF1 mouse assessed as motor impairment by rotorod test. Format: toxicity, organism-based. To be noted: in vivo. A general note: In the rotarod test animals must keep their balance on a rotating rod.
The subject of data set [9] is Mus musculus. The data set can be described thus: Anticonvulsant activity in ip dosed AGS-susceptible frings albino CF1 mouse assessed as protection against sound-induced seizures. It is filed as functional.
Data set [10] in a line: Protective index, ratio of TD50 for neurotoxicity in ip dosed albino CF1 mouse to ED50 for protection against sound-induced seizures in ip dosed AGS-susceptible frings albino CF1 mouse. To be noted: CF1 (ED50 arm: AGS-susceptible Frings), in vivo, read-out: Ratio TD50/ED50. It is filed as toxicity, organism-based.
For the next data set, the system named is Homo sapiens. The data set can be described thus: Anticonvulsant activity in patient assessed as improvement in seizure control at 600 mg/day administered up to 1 year. Format: functional.

SMILES strings stand for the structures.

For orientation: ED50 means the midpoint of the dose-response relation. The TD50 is the 50% point of the dose-response relation for the toxic effect studied. For the molecule `CCCC(C(N)=O)C(C)CC` (stereo unspecified), the ED50 in the data set with Mus musculus [1] came out at 21 mg/kg; with Mus musculus [5], 27 mg/kg; in the data set on Mus musculus [9], 20 mg/kg. In addition, the results for the selectivity ratio in [2], in data set [7] and in data set [10] were 2.3, 1.8 and 2.4, respectively. For the same molecule, the Time in the data set on Mus musculus [3], in the data set with Mus musculus [4] and in the data set on Mus musculus [6] was 0.5 h each time. For the same molecule, in [8], the TD50 amounted to 48 mg/kg.

`O=C(Cn1ccnc1)c1ccc2ccccc2c1` [NAFIMIDONE]: the Activity in the data set on Homo sapiens is 33%.

Values taken from ChEMBL document CHEMBL3826915, “Design and comparative anticonvulsant activity assessment of CNS-active alkyl-carbamoyl imidazole derivatives” (Bioorg Med Chem, 2016).
